The source of these data is publication PMC9394284, “Discovery of Novel Dual Adenosine A2A and A1 Receptor Antagonists with 1H-Pyrazolo[3,4-d]pyrimidin-6-amine Core Scaffold as Anti-Parkinson’s Disease Agents” (Pharmaceuticals, 2022).

For this test, the system named is MPTP-lesioned mouse model. Briefly: MPTP-lesioned mouse model of Parkinson's disease. Format: in vivo, C57BL/6J mice. From the text:
In a subsequent study, we investigated the therapeutic efficacy of 11o in PD using an MPTP-lesioned mouse model. This MPTP-lesion mouse model is one of the most well-established PD models and causes an approximately 90% loss of striatal dopamine, as analyzed using HPLC 7 days after the administration of the last dose of MPTP [13].
Male C57BL/6J mice of 10 weeks of age were purchased from Charles River Laboratories (Charles River Laboratories, Freiburg, Germany) and maintained at QPS Austria. All procedures described were reviewed and approved by IACUC at QPS Austria. Animal studies conformed to the Austrial guidelines for the care and use of laboratory animals (Tierversuchsgesetz 2012-TVG 2012, BGB1. I Nr. 114/2012). […]
To test individual nest-building behavior, mice were housed individually in cages containing wood-chip bedding and one square of pressed cotton (‘nestlet’). […] The nestlet was introduced on the day before the evaluation of the nest status in about 2 to 3 h before the dark phase was initiated, and the nest-building behavior was evaluated on the following day of the experiment within 2~3 h after the light-phase start. […] Manipulation of the nestlet and the constitution of the built nest were assessed according to five-point scale as follows: 1. […]

For `Cc1cc(Cn2ncc3c(-c4cccc(C#N)c4F)nc(N)nc32)ccc1N` [11o, 3-(6-Amino-1-(4-amino-3-methylbenzyl)-1H-pyrazolo[3,4-d]pyrimidin-4-yl)-2-fluorobenzonitrile], where the note is “MPTP-lesioned mice, intranasal 1 and 10 mg/kg, difference not significant”, the nest-building activity result was “partially restored the activity level to near sham level”. Besides, the “rescue of striatal dopamine depletion caused by MPTP” value (once daily for 7 days, doses up to 10 mg/kg, data not shown) is recorded as “unable to rescue dopamine depletion”.
